Earlier results, collected in US20180177735A1, “Stable Pharmaceutical Composition Of Phytonadione And A Novel Process For Preparation Thereof” (Amneal Pharmaceuticals Company GmbH, priority 2016, published 2018).
Like-named read-outs stand apart in the source and are kept apart here.

In the case of `CC1=C(C/C=C(\C)CCC[C@H](C)CCC[C@H](C)CCCC(C)C)C(=O)c2ccccc2C1=O` [Phytonadione], the solubility (in chloroform) is listed as “soluble”, the solubility (in ethanol) is listed as “slightly soluble (1 g of material requires 100 to 1000 ml of solute to dissolve)” and the solubility (in water) is listed as “insoluble”.
